Experiment: Biodistribution in normal mice (dissection, gamma counting)
Type: in vivo
Conditions: for % dose/g Blood / % dose/g Body leftover / % dose/g Bone / % dose/g Brain / % dose/g Fat / % dose/g Heart / % dose/g Intestine / % dose/g Kidney / % dose/g Liver / % dose/g Lung / % dose/g Muscle / % dose/g Pancreas / % dose/g Skin / % dose/g Spleen / % dose/g Stomach / % dose/g Tail / % dose/g Testes / % dose/g Thyroid / % dose/g Urogenital / % dose/organ Blood / % dose/organ Body leftover / % dose/organ Bone / % dose/organ Brain / % dose/organ Fat / % dose/organ Heart / % dose/organ Intestine / % dose/organ Kidney / % dose/organ Liver / % dose/organ Lung / % dose/organ Muscle / % dose/organ Pancreas / % dose/organ Skin / % dose/organ Spleen / % dose/organ Stomach / % dose/organ Tail / % dose/organ Testes / % dose/organ Thyroid / % dose/organ Urogenital: AVG
Protocol: While under anesthesia, 0.2 mL of saline solution containing 20 μCi of 3-(3-[18F]-fluoroazetidin-1-yl)-8-methylbenzo[4,5]imidazo[1,2-a]pyridine is injected directly into the tail vein. Three mice are used per time point and sacrificed in a staggered manner. The following organs and fluids are collected: Blood, Spleen, Thyroid, Testes, Heart, Liver, Pancreas, Kidneys, Muscle, Skin, Stomach, Bone, Lungs, Brain, Intestines, Urogenital system. The organs are weighted and the radioactivity of each organ is counted in an Automatic Gamma Counter (Perkin Elmer). For the skin, bone, muscle and blood, a sample is counted and the total weight of the organ or fluid is estimated. A sample of the injected dose is counted as reference. The Percentage Injected Dose per Gram of tissue (% ID/g) is calculated for each organ.

Cc1ccc2nc3cc(N4CC([18F])C4)ccn3c2c1 [Compound 8, 3-(3-[18F]-fluoroazetidin-1-yl)-8-methylbenzo[4,5]imidazo[1,2-a]pyridine]
% dose/g Blood (2 minutes): 2.52 % dose/g | % dose/g Body leftover (2 minutes): 2.43 % dose/g | % dose/g Bone (2 minutes): 1.89 % dose/g | % dose/g Brain (2 minutes): 9.53 % dose/g | % dose/g Fat (2 minutes): 1.09 % dose/g | % dose/g Heart (2 minutes): 4.79 % dose/g | % dose/g Intestine (2 minutes): 5.77 % dose/g | % dose/g Kidney (2 minutes): 39.08 % dose/g | % dose/g Liver (2 minutes): 7.32 % dose/g | % dose/g Lung (2 minutes): 26.50 % dose/g | % dose/g Muscle (2 minutes): 1.81 % dose/g | % dose/g Pancreas (2 minutes): 8.74 % dose/g | % dose/g Skin (2 minutes): 0.96 % dose/g | % dose/g Spleen (2 minutes): 10.89 % dose/g | % dose/g Stomach (2 minutes): 4.14 % dose/g | % dose/g Tail (2 minutes): 14.93 % dose/g | % dose/g Testes (2 minutes): 1.78 % dose/g | % dose/g Thyroid (2 minutes): 6.01 % dose/g | % dose/g Urogenital (2 minutes): 4.33 % dose/g | % dose/organ Blood (2 minutes): 4.54 % dose/organ | % dose/organ Body leftover (2 minutes): 38.48 % dose/organ | % dose/organ Bone (2 minutes): 6.87 % dose/organ | % dose/organ Brain (2 minutes): 4.42 % dose/organ | % dose/organ Fat (2 minutes): 0.27 % dose/organ | % dose/organ Heart (2 minutes): 0.72 % dose/organ | % dose/organ Intestine (2 minutes): 15.39 % dose/organ | % dose/organ Kidney (2 minutes): 15.93 % dose/organ | % dose/organ Liver (2 minutes): 11.56 % dose/organ | % dose/organ Lung (2 minutes): 5.18 % dose/organ | % dose/organ Muscle (2 minutes): 19.01 % dose/organ | % dose/organ Pancreas (2 minutes): 1.31 % dose/organ | % dose/organ Skin (2 minutes): 3.74 % dose/organ | % dose/organ Spleen (2 minutes): 1.00 % dose/organ | % dose/organ Stomach (2 minutes): 1.52 % dose/organ | % dose/organ Tail (2 minutes): 10.85 % dose/organ | % dose/organ Testes (2 minutes): 0.30 % dose/organ | % dose/organ Thyroid (2 minutes): 0.10 % dose/organ | % dose/organ Urogenital (2 minutes): 0.75 % dose/organ | % dose/g Blood (30 minutes): 1.14 % dose/g | % dose/g Body leftover (30 minutes): 0.71 % dose/g | % dose/g Bone (30 minutes): 0.93 % dose/g | % dose/g Brain (30 minutes): 0.39 % dose/g | % dose/g Fat (30 minutes): 0.63 % dose/g | % dose/g Heart (30 minutes): 0.76 % dose/g | % dose/g Intestine (30 minutes): 10.09 % dose/g | % dose/g Kidney (30 minutes): 5.98 % dose/g | % dose/g Liver (30 minutes): 2.76 % dose/g | % dose/g Lung (30 minutes): 5.11 % dose/g | % dose/g Muscle (30 minutes): 0.46 % dose/g | % dose/g Pancreas (30 minutes): 1.15 % dose/g | % dose/g Skin (30 minutes): 0.55 % dose/g | % dose/g Spleen (30 minutes): 1.98 % dose/g | % dose/g Stomach (30 minutes): 3.10 % dose/g | % dose/g Tail (30 minutes): 2.77 % dose/g | % dose/g Testes (30 minutes): 1.56 % dose/g | % dose/g Thyroid (30 minutes): 0.81 % dose/g | % dose/g Urogenital (30 minutes): 22.15 % dose/g | % dose/organ Blood (30 minutes): 2.03 % dose/organ | % dose/organ Body leftover (30 minutes): 10.62 % dose/organ | % dose/organ Bone (30 minutes): 3.31 % dose/organ | % dose/organ Brain (30 minutes): 0.17 % dose/organ | % dose/organ Fat (30 minutes): 0.21 % dose/organ | % dose/organ Heart (30 minutes): 0.11 % dose/organ | % dose/organ Intestine (30 minutes): 28.28 % dose/organ | % dose/organ Kidney (30 minutes): 2.56 % dose/organ | % dose/organ Liver (30 minutes): 4.22 % dose/organ | % dose/organ Lung (30 minutes): 0.99 % dose/organ | % dose/organ Muscle (30 minutes): 4.68 % dose/organ | % dose/organ Pancreas (30 minutes): 0.15 % dose/organ | % dose/organ Skin (30 minutes): 2.10 % dose/organ | % dose/organ Spleen (30 minutes): 0.19 % dose/organ | % dose/organ Stomach (30 minutes): 1.80 % dose/organ | % dose/organ Tail (30 minutes): 1.93 % dose/organ | % dose/organ Testes (30 minutes): 0.23 % dose/organ | % dose/organ Thyroid (30 minutes): 0.01 % dose/organ | % dose/organ Urogenital (30 minutes): 3.92 % dose/organ | % dose/g Blood (60 minutes): 0.87 % dose/g | % dose/g Body leftover (60 minutes): 0.54 % dose/g | % dose/g Bone (60 minutes): 0.97 % dose/g | % dose/g Brain (60 minutes): 0.26 % dose/g | % dose/g Fat (60 minutes): 0.27 % dose/g | % dose/g Heart (60 minutes): 0.49 % dose/g | % dose/g Intestine (60 minutes): 15.40 % dose/g | % dose/g Kidney (60 minutes): 4.32 % dose/g | % dose/g Liver (60 minutes): 3.10 % dose/g | % dose/g Lung (60 minutes): 4.01 % dose/g | % dose/g Muscle (60 minutes): 0.31 % dose/g | % dose/g Pancreas (60 minutes): 0.60 % dose/g | % dose/g Skin (60 minutes): 0.36 % dose/g | % dose/g Spleen (60 minutes): 1.15 % dose/g | % dose/g Stomach (60 minutes): 2.78 % dose/g | % dose/g Tail (60 minutes): 2.10 % dose/g | % dose/g Testes (60 minutes): 0.88 % dose/g | % dose/g Thyroid (60 minutes): 0.68 % dose/g | % dose/g Urogenital (60 minutes): 13.95 % dose/g | % dose/organ Blood (60 minutes): 1.63 % dose/organ | % dose/organ Body leftover (60 minutes): 8.64 % dose/organ | % dose/organ Bone (60 minutes): 3.62 % dose/organ | % dose/organ Brain (60 minutes): 0.09 % dose/organ | % dose/organ Fat (60 minutes): 0.12 % dose/organ | % dose/organ Heart (60 minutes): 0.08 % dose/organ | % dose/organ Intestine (60 minutes): 32.10 % dose/organ | % dose/organ Kidney (60 minutes): 1.73 % dose/organ | % dose/organ Liver (60 minutes): 4.73 % dose/organ | % dose/organ Lung (60 minutes): 0.74 % dose/organ | % dose/organ Muscle (60 minutes): 3.30 % dose/organ | % dose/organ Pancreas (60 minutes): 0.13 % dose/organ | % dose/organ Skin (60 minutes): 1.44 % dose/organ | % dose/organ Spleen (60 minutes): 0.12 % dose/organ | % dose/organ Stomach (60 minutes): 3.25 % dose/organ | % dose/organ Tail (60 minutes): 1.35 % dose/organ | % dose/organ Testes (60 minutes): 0.20 % dose/organ | % dose/organ Thyroid (60 minutes): 0.11 % dose/organ | % dose/organ Urogenital (60 minutes): 3.23 % dose/organ | % dose/g Blood (120 minutes): 0.50 % dose/g | % dose/g Body leftover (120 minutes): 0.29 % dose/g | % dose/g Bone (120 minutes): 0.72 % dose/g | % dose/g Brain (120 minutes): 0.23 % dose/g | % dose/g Fat (120 minutes): 0.11 % dose/g | % dose/g Heart (120 minutes): 0.27 % dose/g | % dose/g Intestine (120 minutes): 11.88 % dose/g | % dose/g Kidney (120 minutes): 1.19 % dose/g | % dose/g Liver (120 minutes): 1.35 % dose/g | % dose/g Lung (120 minutes): 2.02 % dose/g | % dose/g Muscle (120 minutes): 0.25 % dose/g | % dose/g Pancreas (120 minutes): 0.23 % dose/g | % dose/g Skin (120 minutes): 0.39 % dose/g | % dose/g Spleen (120 minutes): 0.57 % dose/g | % dose/g Stomach (120 minutes): 0.81 % dose/g | % dose/g Tail (120 minutes): 0.84 % dose/g | % dose/g Testes (120 minutes): 0.31 % dose/g | % dose/g Thyroid (120 minutes): 0.60 % dose/g | % dose/g Urogenital (120 minutes): 30.39 % dose/g | % dose/organ Blood (120 minutes): 0.89 % dose/organ | % dose/organ Body leftover (120 minutes): 4.42 % dose/organ | % dose/organ Bone (120 minutes): 2.50 % dose/organ | % dose/organ Brain (120 minutes): 0.11 % dose/organ | % dose/organ Fat (120 minutes): 0.03 % dose/organ | % dose/organ Heart (120 minutes): 0.04 % dose/organ | % dose/organ Intestine (120 minutes): 32.80 % dose/organ | % dose/organ Kidney (120 minutes): 0.44 % dose/organ | % dose/organ Liver (120 minutes): 1.86 % dose/organ | % dose/organ Lung (120 minutes): 0.37 % dose/organ | % dose/organ Muscle (120 minutes): 2.51 % dose/organ | % dose/organ Pancreas (120 minutes): 0.03 % dose/organ | % dose/organ Skin (120 minutes): 1.46 % dose/organ | % dose/organ Spleen (120 minutes): 0.05 % dose/organ | % dose/organ Stomach (120 minutes): 0.45 % dose/organ | % dose/organ Tail (120 minutes): 0.61 % dose/organ | % dose/organ Testes (120 minutes): 0.05 % dose/organ | % dose/organ Thyroid (120 minutes): 0.06 % dose/organ | % dose/organ Urogenital (120 minutes): 6.52 % dose/organ | clearance from the brain, remaining level (before the 30 min point): less than 10 % of the peak | de-fluorination (radioactivity in bone tissue) (first two hours): do not undergo de-fluorination | uptake by the muscle (over the study period): under 2 % ID/g

Reference: patent US10301308B2, “Azetidine derivatives for tau imaging” (Eli Lilly and Company, priority 2015, dated 2019)
